{
  "source": "patent US8372822B2",
  "about": "“Polymorphs of eltrombopag and eltrombopag salts and processes for preparation thereof” (Pliva Hrvatska D.O.O., priority 2009, dated 2013)",
  "format_in_all_cases": "physicochemical",
  "key": {"[1]": {"assay": "Solubility"}, "[2]": {"assay": "Hygroscopicity: absorption of atmospheric water, measured by TGA", "conditions": "relative humidity of 80%, 100% at room temperature, non-hygroscopic = less than 0.2% (w/w) absorption of atmospheric water by TGA", "from_the_text": "As used herein the term non-hygroscopic in relation to crystalline Eltrombopag refers to less than 0.2% (w/w) absorption of atmospheric water to the crystalline Eltrombopag in the above specified conditions, as measured by TGA."}, "[3]": {"assay": "Thermo-dynamical stability: conversion to other solid state forms under heating, measured by XRPD", "conditions": "heating up to 200° C. at 10° C./minute, defined as less than 20%, 5%, 1%, or 0.5% conversion to any other solid state form by XRPD", "method": "As used herein the term “thermo-dynamical stability” in relation to crystalline Eltrombopag form I refers to less than 20%, 10%, 5%, 1%, or 0.5% conversion of crystalline Eltrombopag form Ito any other solid state form of Eltrombopag under heating up to temperature of 200° C. at a heating rate of 10° C./minute, as measured by XRPD. In some embodiments, the conversion is 1%-20%, 1%-10% or 1%-5%."}},
  "data": [
    {"smiles": "CC1=NN(c2ccc(C)c(C)c2)C(=O)/C1=N\\Nc1cccc(-c2cccc(C(=O)O)c2)c1O", "note": "[Eltrombopag bisethanolamine form II]", "values": [
      {"measurement": "solubility in water", "setting": "[1]; water", "result": "highly soluble in water"}
    ]},
    {"smiles": "CC1=NN(c2ccc(C)c(C)c2)C(=O)/C1=N\\Nc1cccc(-c2cccc(C(=O)O)c2)c1O", "note": "[Eltrombopag form III]", "values": [
      {"measurement": "hygroscopicity", "setting": "[2]; at least 10 months", "result": "non-hygroscopic"}
    ]},
    {"smiles": "CC1=NN(c2ccc(C)c(C)c2)C(=O)/C1=N\\Nc1cccc(-c2cccc(C(=O)O)c2)c1O", "note": "[Eltrombopag form I]", "values": [
      {"measurement": "thermo-dynamical stability", "setting": "[3]", "result": "advantageous"},
      {"measurement": "solubility", "setting": "[1]; medium not stated", "result": "advantageous"}
    ]},
    {"smiles": "CC1=NN(c2ccc(C)c(C)c2)C(=O)/C1=N\\Nc1cccc(-c2cccc(C(=O)O)c2)c1O", "note": "[Eltrombopag form XVI]", "values": [
      {"measurement": "hygroscopicity", "setting": "[2]; at least 5 months", "result": "non-hygroscopic"}
    ]}
  ]
}
